Results on eight compounds are retold here after ChEMBL document CHEMBL4706630, “Modulation of the G-Protein-Coupled Receptor 84 (GPR84) by Agonists and Antagonists” (J Med Chem, 2020).

Molecules are shown by their SMILES.

For test [1], the target named is T1, G-protein coupled receptor 84 (Homo sapiens, UniProt Q9NQS5). Nature of the test: Antagonist activity at recombinant human N-terminal epitope tagged/eYFP-fused FLAG-tagged GPR84 expressed in Flp-In TREx 293 cells assessed as inhibition of DIM-induced [35S]GTPgammaS binding pre-incubated for 15 mins followed by [35S]GTPgammaS addition and measured after 45 mins by liquid scintillation spectrometry. The format is functional, cell-based, Flp-In-T-REx-293.

Test [2] deals with T2, G-protein coupled receptor 84 (Mus musculus, UniProt Q8CIM5). Nature of the test: Antagonist activity at GPR84 in LPS-treated mouse RAW 264.7 cell membrane assessed as reduction in PSB-16671-induced stimulation of [35S]GTPgammaS binding preincubated for 15 mins followed by PSB-16671 addition and subsequent addition of [35S]GTPgammaS measured after 60 mins by liquid scintillation spectroscopy. The class given is functional, cell membranes, RAW264.7. On the technique in general: GTPγS resists hydrolysis and so accumulates on activated G proteins.

Test [3] addresses T1, G-protein coupled receptor 84. Nature of the test: Antagonist activity at human Flag-tagged Gialpha-coupled GPR84 expressed in human Flp-In-T-REx-293 cell membrane assessed as reduction in PSB-16671-induced stimulation of [35S]GTPgammaS binding preincubated for 15 mins followed by PSB-16671 addition and subsequent addition of [35S]GTPgammaS measured after 60 mins by liquid scintillation spectroscopy. The class given is functional, cell membranes.

The target is the same in test [4]. Nature of the test: Antagonist activity at recombinant human N-terminal epitope tagged/eYFP-fused FLAG-tagged GPR84 expressed in Flp-In TREx 293 cells assessed as inhibition of decanoic acid-induced [35S]GTPgammaS binding pre-incubated for 15 mins followed by [35S]GTPgammaS addition and measured after 45 mins by liquid scintillation spectrometry. The format is functional, cell-based, Flp-In-T-REx-293.

Test [5] shares this target. Nature of the test: Antagonist activity at GPR84 in LPS-treated human THP-1 cell membrane assessed as reduction in ZQ-16-induced stimulation of [35S]GTPgammaS binding preincubated for 15 mins followed by ZQ-16 addition and subsequent addition of [35S]GTPgammaS measured after 60 mins by liquid scintillation spectroscopy. The class given is functional.
For test [6] the target is unchanged. Nature of the test: Antagonist activity at GPR84 in LPS-treated human THP-1 cell membrane assessed as reduction in PSB-16671-induced stimulation of [35S]GTPgammaS binding preincubated for 15 mins followed by PSB-16671 addition and subsequent addition of [35S]GTPgammaS measured after 60 mins by liquid scintillation spectroscopy. The class given is functional.

The target in test [7] is T2, G-protein coupled receptor 84. Nature of the test: Antagonist activity at mouse Galphai2-coupled GPR84 expressed in human Flp-In-T-REx-293 cell membrane assessed as reduction in PSB-16671-induced stimulation of [35S]GTPgammaS binding preincubated for 15 mins followed by PSB-16671 addition and subsequent addition of [35S]GTPgammaS measured after 60 mins by liquid scintillation spectroscopy. The format is functional, cell membranes.

Test [8] addresses T1, G-protein coupled receptor 84. Nature of the test: Antagonist activity at recombinant human N-terminal epitope tagged/eYFP-fused FLAG-tagged GPR84 expressed in Flp-In TREx 293 cells assessed as inhibition of embelin-induced [35S]GTPgammaS binding pre-incubated for 15 mins followed by [35S]GTPgammaS addition and measured after 45 mins by liquid scintillation spectrometry. The class given is functional, cell-based, Flp-In-T-REx-293.

The target is the same in test [9]. Nature of the test: Antagonist activity at human GPR84 expressed in CHO-K1 cells assessed as reduction in 6-OAU-induced inhibition of forskolin stimulated cAMP production preincubated for 15 mins followed by forskolin and 6-OAU stimulation and measured after 30 mins by luminescence method. The class given is functional, cell-based.
The target of test [10] is T2, G-protein coupled receptor 84. Nature of the test: Agonist activity at GPR84 in mouse bone-marrow-derived neutrophils assessed as stimulation of [35S]GTPgammaS binding incubated for 60 mins by liquid scintillation spectroscopy. The format is functional, tissue-based, Neutrophil.
Test [11] concerns the target T1, G-protein coupled receptor 84. Nature of the test: Agonist activity at human Gialpha-coupled GPR84 expressed in baculovirus infected sf9 insect cells assessed as induction of [35S]GTPgammaS incubated for 1 hr by liquid scintillation counting method. The format is functional.
Test [12] shares this target. Nature of the test: Agonist activity at human GPR84 expressed in CHO cells assessed as reduction in forskolin-stimulated cAMP production preincubated for 20 mins followed by forskolin stimulation and measured after 20 mins by cAMP assay. The class given is functional, cell-based.
Test [13] has the same target. Nature of the test: Agonist activity at human GPR84 expressed in CHO cell membranes assessed as induction of [35S]GTPgammaS incorporation incubated for 1 hr by liquid scintillation counting method. The class given is functional, Cell membrane.

The term IC50 denotes the point on the concentration scale where inhibition reaches its midpoint. In general, EC50 refers to the midpoint of the concentration-response curve.

T2 sequence (Q8CIM5 whole entry): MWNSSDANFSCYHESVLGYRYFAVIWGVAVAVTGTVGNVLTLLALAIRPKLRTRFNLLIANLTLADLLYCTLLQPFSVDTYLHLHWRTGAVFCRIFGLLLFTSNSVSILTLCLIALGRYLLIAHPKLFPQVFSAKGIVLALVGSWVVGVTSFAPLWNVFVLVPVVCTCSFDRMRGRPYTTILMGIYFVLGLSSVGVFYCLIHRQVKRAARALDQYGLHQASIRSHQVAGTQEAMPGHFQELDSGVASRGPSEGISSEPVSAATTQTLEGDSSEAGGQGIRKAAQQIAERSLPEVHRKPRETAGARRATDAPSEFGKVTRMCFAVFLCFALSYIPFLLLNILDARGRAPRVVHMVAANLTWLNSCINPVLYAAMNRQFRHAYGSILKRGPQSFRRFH
T1 sequence (Q9NQS5 whole entry, the tested form may be a part): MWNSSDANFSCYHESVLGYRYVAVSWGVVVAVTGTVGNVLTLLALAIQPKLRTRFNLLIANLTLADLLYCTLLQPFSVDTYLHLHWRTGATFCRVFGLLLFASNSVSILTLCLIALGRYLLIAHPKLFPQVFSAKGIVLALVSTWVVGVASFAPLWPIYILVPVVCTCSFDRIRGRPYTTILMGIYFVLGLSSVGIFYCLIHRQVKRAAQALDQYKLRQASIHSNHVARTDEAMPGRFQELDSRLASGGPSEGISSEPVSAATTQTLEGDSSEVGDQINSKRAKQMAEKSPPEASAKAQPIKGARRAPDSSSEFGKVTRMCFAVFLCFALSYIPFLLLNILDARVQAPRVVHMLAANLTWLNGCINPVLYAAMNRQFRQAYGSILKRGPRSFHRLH

On to `O=c1nc(OCC2COCCO2)cc2n1CCc1cc(C#CCNc3ccccc3)ccc1-2` (stereo not given), for which the IC50 in test [1] worked out at 21 nM; in test [2], 145 nM; in test [3], 0.9 nM; in [4], 25 nM; in test [5], 14 nM; in test [6], 4.8 nM. For the same compound, the IC50 in test [7] turned out to be 68 nM; in test [8], 22 nM.

Consider `O=c1nc(OC[C@@H]2COCCO2)cc2n1CCc1cc(COCC3CCOCC3)ccc1-2`, for which the IC50 in test [1] is 55 nM; in test [4] it was 168 nM; in test [8], 83 nM.

Consider `O=c1nc(OC[C@H]2COCCO2)cc2n1CCc1cc(OCc3noc(C4CC4)n3)ccc1-2`, for which the figures for the IC50 in test [1], in test [4] and in test [8] were 86 nM, 28 nM and 14 nM, respectively.

Take `O=c1nc(OCC2COCCO2)cc2n1CCc1cc(OCc3ccccn3)ccc1-2` (stereo not given): in [9], the IC50 is 260 nM.

With `CCCCCCSc1nc(O)cc(O)n1`, in test [10], the EC50 came out at 12.9 nM.

For `Fc1cc(F)c2[nH]cc(Cc3c[nH]c4c(F)cc(F)cc34)c2c1`, in test [10], the EC50 came to 2880 nM.

For `CCCCCCCCCC(O)CC(=O)O` (stereo not given), in test [11], the EC50 came out at 13 µM.

With `CCCCCCCCC(=O)O` [NONANOATE], the EC50 in [12] was 52.3 µM; in [13] it was 70.2 µM.
